Data taken from patent publication US7960369B2, “Receptor function regulator” (Takeda Pharmaceutical Company Limited, priority 2002, dated 2011).

How the values were obtained:
[1] = system: siRNA-introduced MIN6 cell; experiment: Insulin secretion enhancing activity of fatty acid in siRNA-introduced MIN6; type: cell-based, mouse
Description: (§1) The expression amount of mouse GPR40-GFP was detected by the following enzyme immunoassay. The culture supernatant was discarded, washed with HBSS (Invitrogen), fixed with 0.01% glutaraldehyde (Wako Pure Chemical Industries, Ltd.) for 5 min., and blocked with PBS (TAKARA SHUZO) containing 2% BSA. 500-fold diluted anti-GFP monoclonal antibody 3E6 (NIPPON GENE CO., LTD.) was added and the cells were incubated at room temperature for 2 hrs., washed and 500-fold diluted HRP-labeled anti-mouse IgG antibody (ICN) was added, and the cells were incubated at room temperature for 2 hrs. After washing, TMB microwell peroxydase substrate (Funakoshi) was added and, after incubation for 30 min., sulfuric acid was added to stop the color developing reaction, and the absorbance at 450 nm was measured.
(§2) Mouse pancreatic β cell line MIN6 cultured in a flask was detached with PBS containing 2.5 mM EDTA, and seeded and incubated in a 96 well plate for 2 days. The medium used was obtained by adding 15% fetal bovine serum (ThermoTrace), […] 2-mercaptoethanol (Invitrogen), 20 mM HEPES pH 7.3, 100 U/ml penicillin and 100 μg/ml streptomycin to Dulbecco's Modified Eagle Medium (DMEM, Invitrogen) containing 4.5 g/l of glucose. The cells were washed twice with modified Krebs-Ringer bicarbonate buffer (KRBH, 116 mM NaCl, 4.7 mM KCl, 1.2 mM KH2PO4, 1.2 mM MgSO4, 2.5 mM CaCl2, 25 mM NaHCO3, 24 mM HEPES pH 7.3) and preincubated at 37° C. under 5% CO2 conditions for 30 min. Fatty acid diluted and prepared with a buffer obtained by adding 22 mM glucose to the above-mentioned KRBH was added to the cell after preincubation and the cells were incubated at 37° C. under 5% CO2 conditions for 90 min. After incubation, the cell supernatant was recovered and cryopreserved. The insulin content of the supernatant was measured using a commercially available insulin immunoassay kit (Amersham Pharmacia Biotech).
Insulin secretion enhancing activity in MIN6 cell, into which m40i103 was introduced using HVJ Envelope VECTOR KIT GenomONE based on the method of Experimental Example 5, was examined. The insulin secretion enhancing activity by fatty acid was examined by the method of Experimental Example 6.

[2] = system: mouse GPR40-GFP fused protein; experiment: Suppression of expression of mouse GPR40-GFP fused protein by siRNA in CHO cells (enzyme immunoassay); type: cell-based; conditions: siRNA 2.86 Pmol/0.5 μl or 8.57 Pmol/1.5 μl introduced into mouse GPR40-GFP expressing CHO cell; absorbance at 450 nm
Description: as §1, with “CHO cell expressing fused protein of mouse GPR40 and GFP prepared by a method known per se was seeded in a 96 well plate at 3×10^4/well and incubated for one day. siRNA of various sequences (Dharmacon) (concentration of 2.86 Pmol/0.5 μl or 8.57 Pmol/1.5 μl) prepared using HVJ Envelope VECTOR KIT GenomONE™ ([…] SANGYO) and according to the report of Elbasir et al. (Nature 411 (6836), 494-498 (2001)) was introduced into the cells and the cells were further incubated for one day. The expression” for “The expression”

[3] = system: mouse insulinoma MIN6 cell; experiment: Insulin secretagogue effect of free fatty acid in mouse insulinoma MIN6 cell (RIA); type: cell-based; conditions: 300 μM-1000 μM free fatty acid-BSA (4:1), 11 mM glucose, 90 min (or 60 min)
Description: Unless otherwise specified, MIN6 cell was incubated in DMEM (high glucose, Invitrogen) containing 15% FCS (Trace Scientific Ltd.), 55 μM 2-mercaptoethanol, 100 U/ml penicillin, and 100 μg/ml streptomycin. Min6 cells were seeded in a 96 well plate at 10^5 cells per well, and incubated at 37° C. for 3 days in a CO2 incubator adjusted to 5% CO2 concentration. The medium was exchanged to RPMI1640 (glucose-free, Invitrogen) containing 10% FCS (Trace Scientific Ltd.), 5.5 mM glucose, 100 U/ml penicillin and 100 μg/ml streptomycin and the cells were further incubated for 24 hrs. The medium was aspirated, free fatty acid-bovine serum albumin (BSA) mixed solution (4:1, molar ratio) diluted with RPMI1640 (glucose-free, Invitrogen) containing 10% FCS (Trace Scientific Ltd.), 11 mM glucose, 100 U/ml penicillin, and 100 μg/ml streptomycin was added to the cells and reacted at 37° C. for 90 min. (or 60 min.) in a CO2 incubator adjusted to 5% CO2 concentration. The 96 well plate after reaction was centrifuged at 1500 rpm for 5 min. and the culture supernatant was recovered. The insulin amount secreted in this culture supernatant liquid was determined by radioimmunoassay (RIA) using a rat insulin RIA system (Amersham Pharmacia Biotech).

[4] = molecular target: T1, human-derived GPR40 (Homo sapiens, UniProt O14842); experiment: Reactivity of fatty acid to human-derived GPR40, intracellular calcium by FLIPR in transfected CHO-K1 cells; type: cell-based; conditions: for activity in intracellular calcium ion mobilization assay using CHO cell expressing GPR40 (GPR40 agonistic activity): as stated in Experimental Example 6
T1 construct: expressed in transfected cells; host or cells: CHO-K1, transient transfection with lipofectamine
Description: Unless specifically indicated, CHO-K1 cell line was cultured using Ham's F-12 medium (Invitrogen) containing 10% fetal calf serum (Invitrogen). The day before transfection, 4.5×10^5 per 10 cm^2 of cells were seeded, and incubated at 37° C. for not less than 15 hrs in a CO2 incubator adjusted to 5% CO2 concentration. The transfection was performed using a lipofectamine reagent (Invitrogen) and according to the reagent attached method. When a 6-well plate was used for a culture plate, transfection was performed in the following manner. First two 1.5 ml volume tubes were prepared, and 100 μl of Opti-MEM-I medium (Invitrogen) was dispensed. Then, […] of an expression vector was added to one tube and 6 μl of a lipofectamine reagent was added to the other tube. They were mixed and stood still at room temperature for 20 min. A mixed solution for transfection containing this solution and Opti-MEM-I medium (800 μl) was added to CHO-K1 cell previously washed with Opti-MEM-I medium, and incubated in a CO2 incubator for 6 hrs. The incubated cells were rinsed with PBS (Invitrogen), detached with 0.05% trypsin-EDTA solution (Invitrogen), recovered by centrifugation. The obtained cells were counted, diluted such that 5×10^4 cells were contained per 200 μl of the medium, dispensed to black walled 96-well plate (Costar) at 200 μl per well, incubated overnight in a CO2 incubator. Various test samples were added to CHO-K1 cells transiently expressing the receptor by the above-mentioned transfection step, and changes in the intracellular calcium concentration then was measured using FLIPR (Molecular Device). For measurement of changes in intracellular calcium concentration by FLIPR, the following pretreatment was applied. First, an assay buffer for adding fluorescence dye Fluo-3AM (DOJIN) to the cell, or washing the cell immediately before FLIPR assay was prepared. To a solution (hereinafter HBSS/HEPES solution) obtained by adding 20 ml of 1M HEPES (pH 7.4) (DOJIN) to 1000 ml of HBSS (Invitrogen) was added a solution (10 ml) obtained by dissolving probenecid (710 mg, Sigma) in 1N NaOH (5 ml) and adding and mixing with HBSS/HEPES solution (5 ml) and the obtained solution was used as an assay buffer. Then, Fluo-3AM (50 μg) was dissolved in 21 μl of DMSO (DOJIN), and an equal amount of 20% pluronic acid (Molecular Probes) was added. The mixture was added to an assay buffer (10.6 ml) supplemented with 105 μl of fetal calf serum to give a fluorescence dye solution. The medium of the CHO-KL cell after transfection treatment was removed, a fluorescence dye solution was immediately dispensed at 100 μl per well and incubated in a CO2 incubator for 1 hr to incorporate the fluorescence dye into the cell. The incubated cells were washed with the above-mentioned assay buffer and set on FLIPR. The test sample to be added to receptor expressing CHO-KL cell was prepared using the assay buffer and simultaneously set on FLIPR. After the above-mentioned pretreatment, changes in the intracellular calcium concentration after addition of various test samples were measured by FLIPR.

[5] = system: mouse pancreatic β cell line MIN6; experiment: Promotion of insulin secretion from MIN6 (insulin immunoassay); type: cell-based; conditions: MIN6, KRBH with 22 mM glucose, 90 min
Description: as §2
as §2, with “(KBH,” for “(KRBH,”, “The compound” for “Fatty acid”

T1 sequence (O14842 whole entry): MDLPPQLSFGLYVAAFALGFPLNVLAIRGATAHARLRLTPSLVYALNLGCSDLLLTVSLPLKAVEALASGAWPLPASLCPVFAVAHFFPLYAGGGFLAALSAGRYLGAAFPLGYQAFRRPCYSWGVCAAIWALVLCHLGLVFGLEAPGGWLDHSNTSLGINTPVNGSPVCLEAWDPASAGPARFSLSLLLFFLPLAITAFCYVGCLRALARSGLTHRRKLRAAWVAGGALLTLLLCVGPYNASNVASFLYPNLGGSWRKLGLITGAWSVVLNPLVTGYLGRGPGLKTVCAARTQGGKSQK

m40i103: "a mouse GPR40 specific siRNA (sense strand is SEQ ID NO: 23, antisense strand is SEQ ID NO: 24)" (sense CGCCAGUUGUGACAUUCUUTT; antisense TTGCGGUCAACACUGUAAGAA; chemistry not given here; one strand is listed 3' to 5')
effect of siRNA introduction on insulin secretion enhancing activity by linoleic acid and γ-linolenic acid ([1]; siRNA introduced into MIN6 with HVJ Envelope VECTOR KIT GenomONE): no longer showed insulin secretion enhancing activity | mouse GPR40-GFP expression amount [2]: lower GPR40-GFP expression amount

CCCCC/C=C\C/C=C\C/C=C\CCCCC(=O)O [γ-linolenic acid]
insulin secretion enhancing activity of fatty acid ([1]; MIN6 into which GPR40 specific siRNA m40i103 was introduced): no longer showed insulin secretion enhancing activity | insulin secretion enhancing activity of fatty acid ([1]; MIN6 into which random sequence Scramble II duplex siRNA was introduced): retention of the insulin secretion enhancing activity | insulin secretion by MIN6 cell [3]: promoted | activity in intracellular calcium ion mobilization assay using CHO cell expressing GPR40 (GPR40 agonistic activity) [4]: remarkable activity | insulin secretion enhancing activity [5]: significant insulin secretion enhancing activity

CCCCCCCCCCCCCCCC(=O)O [palmitic acid]
insulin secretion by MIN6 cell [3]: promoted

m40i256: mouse GPR40 specific siRNA "(sense strand is SEQ ID NO: 25, antisense strand is SEQ ID NO: 26)" (sense CUUGUUAGCCAUCCGAGGCTT; antisense TTGAACAATCGGTAGGCTCCG; chemistry not given here; one strand is listed 3' to 5')
mouse GPR40-GFP expression amount [2]: lower GPR40-GFP expression amount

CCCCCCCC/C=C\CCCCCCCC(=O)O [oleic acid]
insulin secretion by MIN6 cell [3]: promoted | response (increase in intracellular calcium concentration) of CHO-K1 cell expressing the GPR40 receptor ([4]; added at 10^−5M-10^−6M, FLIPR, control-vector cells showed no response): specifically responds | activity in intracellular calcium ion mobilization assay using CHO cell expressing GPR40 (GPR40 agonistic activity) [4]: remarkable activity | insulin secretion enhancing activity [5]: significant insulin secretion enhancing activity
